Reference: US10544143B2, “4-azaindole compounds” (BRISTOL-MYERS SQUIBB COMPANY, priority 2017, dated 2020)
Read-outs that look alike come from different tables or passages of the source.

Legend:
[1] = biological target: human TLR7 (Homo sapiens (Human), UniProt Q9NYK1); assay: TLR7 inhibition reporter assay (HEK-Blue SEAP); assay type: cell-based
[2] = biological target: human TLR8 (Homo sapiens (Human), UniProt Q9NR97); assay: TLR8 inhibition reporter assay (HEK-Blue SEAP);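 note: SEAP driven by IFN-β minimal promoter carrying NF-κB and AP-1 sites, compounds dosed 0.05 nM to 50 µM for 22 h, inhibition scaled between agonist-plus-DMSO and reference-inhibitor wells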
human TLR8, sequence (Q9NR97 27-1041): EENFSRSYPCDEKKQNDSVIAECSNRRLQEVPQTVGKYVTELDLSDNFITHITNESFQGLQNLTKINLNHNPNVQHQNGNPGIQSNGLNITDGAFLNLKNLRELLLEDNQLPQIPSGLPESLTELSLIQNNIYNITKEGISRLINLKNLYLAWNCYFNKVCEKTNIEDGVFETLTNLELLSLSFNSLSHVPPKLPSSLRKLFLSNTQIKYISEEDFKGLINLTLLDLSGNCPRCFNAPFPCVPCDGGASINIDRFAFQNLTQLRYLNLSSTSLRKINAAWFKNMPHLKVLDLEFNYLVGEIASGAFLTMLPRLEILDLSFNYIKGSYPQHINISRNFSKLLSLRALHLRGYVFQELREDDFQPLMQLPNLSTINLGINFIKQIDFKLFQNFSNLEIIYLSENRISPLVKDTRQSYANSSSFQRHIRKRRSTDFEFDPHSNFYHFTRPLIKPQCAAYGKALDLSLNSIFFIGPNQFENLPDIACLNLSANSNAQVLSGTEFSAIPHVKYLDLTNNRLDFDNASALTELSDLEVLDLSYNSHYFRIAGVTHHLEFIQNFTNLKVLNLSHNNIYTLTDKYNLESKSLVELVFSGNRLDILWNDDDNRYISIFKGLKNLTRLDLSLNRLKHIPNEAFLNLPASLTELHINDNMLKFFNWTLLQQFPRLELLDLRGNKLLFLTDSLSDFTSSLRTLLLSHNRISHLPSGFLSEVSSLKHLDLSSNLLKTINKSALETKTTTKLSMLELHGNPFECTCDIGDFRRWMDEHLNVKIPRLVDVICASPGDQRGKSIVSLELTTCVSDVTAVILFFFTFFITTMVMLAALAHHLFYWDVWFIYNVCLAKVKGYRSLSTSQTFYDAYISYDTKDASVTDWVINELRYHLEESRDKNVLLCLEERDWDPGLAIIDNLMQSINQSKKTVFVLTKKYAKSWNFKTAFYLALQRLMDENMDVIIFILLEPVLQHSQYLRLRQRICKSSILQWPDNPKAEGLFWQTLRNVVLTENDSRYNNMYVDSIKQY

[3] = biological target: human TLR9 (Homo sapiens (Human), UniProt Q9NR96); assay: TLR9 inhibition reporter assay (HEK-Blue SEAP);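 note: SEAP driven by an IFN-β minimal promoter with NF-κB and AP-1 sites, read after 22 h, compounds dosed 0.05 nM–50 µM, inhibition scaled between agonist plus DMSO and reference-inhibitor wells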
human TLR9, sequence (Q9NR96 26-1032): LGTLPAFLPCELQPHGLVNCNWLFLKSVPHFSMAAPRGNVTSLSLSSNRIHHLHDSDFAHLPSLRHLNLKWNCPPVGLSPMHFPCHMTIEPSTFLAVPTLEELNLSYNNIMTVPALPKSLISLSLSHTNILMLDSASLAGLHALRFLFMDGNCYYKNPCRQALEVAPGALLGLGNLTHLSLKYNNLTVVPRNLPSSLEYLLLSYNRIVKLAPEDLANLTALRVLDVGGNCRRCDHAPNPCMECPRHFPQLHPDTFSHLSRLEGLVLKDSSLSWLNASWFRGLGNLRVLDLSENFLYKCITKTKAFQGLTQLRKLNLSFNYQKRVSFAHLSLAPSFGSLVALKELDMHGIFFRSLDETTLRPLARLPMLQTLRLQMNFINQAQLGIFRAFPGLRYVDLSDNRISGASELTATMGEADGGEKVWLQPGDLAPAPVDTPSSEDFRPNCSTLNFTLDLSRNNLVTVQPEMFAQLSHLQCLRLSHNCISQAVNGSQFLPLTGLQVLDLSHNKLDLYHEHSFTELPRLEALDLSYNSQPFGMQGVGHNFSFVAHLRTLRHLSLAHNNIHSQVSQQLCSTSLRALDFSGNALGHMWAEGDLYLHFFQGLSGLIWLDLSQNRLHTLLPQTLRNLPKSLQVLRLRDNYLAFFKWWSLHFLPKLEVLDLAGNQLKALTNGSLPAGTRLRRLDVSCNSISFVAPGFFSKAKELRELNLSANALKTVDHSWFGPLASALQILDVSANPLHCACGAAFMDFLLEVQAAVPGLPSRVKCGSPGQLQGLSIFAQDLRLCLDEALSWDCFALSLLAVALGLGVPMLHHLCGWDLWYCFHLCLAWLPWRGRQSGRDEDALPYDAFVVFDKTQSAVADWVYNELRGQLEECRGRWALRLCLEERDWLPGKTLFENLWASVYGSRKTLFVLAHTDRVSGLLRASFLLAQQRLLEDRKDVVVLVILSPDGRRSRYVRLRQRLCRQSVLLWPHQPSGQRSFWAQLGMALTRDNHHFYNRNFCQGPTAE

[4] = HEK-Blue cells overexpressing human TLR7, SEAP reporter, gardiquimod 7.5 μM
[5] = read-out: TLR8 IC50, HEK-Blue cells overexpressing human TLR8, SEAP reporter, R848 15.9 μM
[6] = read-out: TLR9 IC50, HEK-Blue cells overexpressing human TLR9, SEAP reporter, ODN2006 5 nM
[7] = HEK-Blue cells overexpressing human TLR7, gardiquimod 7.5 μM stimulation, SEAP reporter
[8] = TLR8 IC50, HEK-Blue cells overexpressing human TLR8, R848 15.9 μM stimulation, SEAP reporter
[9] = TLR9 IC50, HEK-Blue cells overexpressing human TLR9, ODN2006 5 nM stimulation, SEAP reporter
[10] = read-out: TLR8 IC50, HEK-Blue cells overexpressing human TLR8, R848 15.9 μM stimulation, SEAP reporter
[11] = read-out: TLR9 IC50, HEK-Blue cells overexpressing human TLR9, ODN2006 5 nM stimulation, SEAP reporter
[12] = HEK-Blue human TLR7 cells, gardiquimod 7.5 μM
[13] = TLR8 IC50, HEK-Blue human TLR8 cells, R848 15.9 μM
[14] = TLR9 IC50, HEK-Blue human TLR9 cells, ODN2006 5 nM
[15] = read-out: TLR8 IC50, HEK-Blue human TLR8 cells, R848 15.9 μM
[16] = read-out: TLR9 IC50, HEK-Blue human TLR9 cells, ODN2006 5 nM

human TLR7, sequence (Q9NYK1 27-1049): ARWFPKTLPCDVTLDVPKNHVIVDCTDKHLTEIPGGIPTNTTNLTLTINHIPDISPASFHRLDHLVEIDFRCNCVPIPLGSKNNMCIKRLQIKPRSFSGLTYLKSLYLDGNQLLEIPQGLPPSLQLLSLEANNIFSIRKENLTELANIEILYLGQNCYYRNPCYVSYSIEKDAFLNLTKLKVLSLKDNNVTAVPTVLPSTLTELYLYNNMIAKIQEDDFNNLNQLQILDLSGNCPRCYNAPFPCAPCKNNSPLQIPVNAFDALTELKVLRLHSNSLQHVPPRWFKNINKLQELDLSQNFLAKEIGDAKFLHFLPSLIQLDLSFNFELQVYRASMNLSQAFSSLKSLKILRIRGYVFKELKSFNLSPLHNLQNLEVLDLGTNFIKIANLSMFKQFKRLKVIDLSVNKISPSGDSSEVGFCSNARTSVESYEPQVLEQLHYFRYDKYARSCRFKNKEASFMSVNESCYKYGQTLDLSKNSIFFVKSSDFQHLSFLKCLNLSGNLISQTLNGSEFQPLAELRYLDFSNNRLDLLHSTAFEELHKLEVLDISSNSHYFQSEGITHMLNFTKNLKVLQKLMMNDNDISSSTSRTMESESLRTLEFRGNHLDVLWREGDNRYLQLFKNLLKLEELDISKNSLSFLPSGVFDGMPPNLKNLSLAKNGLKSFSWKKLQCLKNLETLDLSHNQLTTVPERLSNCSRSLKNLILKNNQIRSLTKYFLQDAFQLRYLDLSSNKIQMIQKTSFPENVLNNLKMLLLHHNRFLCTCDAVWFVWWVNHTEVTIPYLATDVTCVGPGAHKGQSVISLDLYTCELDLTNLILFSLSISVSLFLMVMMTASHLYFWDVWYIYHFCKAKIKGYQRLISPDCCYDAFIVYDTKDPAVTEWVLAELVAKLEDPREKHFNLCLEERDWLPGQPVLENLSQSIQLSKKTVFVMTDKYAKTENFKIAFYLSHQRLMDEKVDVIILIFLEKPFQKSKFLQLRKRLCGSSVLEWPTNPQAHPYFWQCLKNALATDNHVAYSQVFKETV

Molecule: 4-((3-isopropyl-2-(8-methoxy-[1,2,4]triazolo[1,5-a]pyridin-6-yl)-1H-pyrrolo[3,2-b]pyridin-5-yl)oxy)-N,N-dipropylcyclohexan-1-amine [Example 605]
- IC50 [1, 4]: 13 nM
- IC50 [2, 5]: 17 nM
- IC50 [3, 6]: 4240 nM

Molecule: COc1cc(-c2[nH]c3ccc(C4CCC(N)C4)nc3c2C(C)C)cn2ncnc12 (racemic) [Example 7, 3-(3-isopropyl-2-(8-methoxy-[1,2,4]triazolo[1,5-a]pyridin-6-yl)-1H-pyrrolo[3,2-b]pyridin-5-yl)cyclopentan-1-amine]
- IC50 [1, 7]: 4.4 nM
- IC50 [2, 8]: 52 nM
- IC50 [3, 9]: 8120 nM

Molecule: COc1cc(-c2[nH]c3ccc(C4CCC(N)C4)nc3c2C(C)C)cn2ncnc12 (racemic) [Example 9, 3-(3-isopropyl-2-(8-methoxy-[1,2,4]triazolo[1,5-a]pyridin-6-yl)-1H-pyrrolo[3,2-b]pyridin-5-yl)cyclopentan-1-amine]
- IC50 [1, 7]: 1.7 nM
- IC50 [2, 8]: 8.2 nM
- IC50 [3, 9]: 2250 nM

Molecule: Cc1c(-c2[nH]c3ccc(N4CCC(NC5COC5)C4)nc3c2C(C)C)cn2ncnc2c1C (racemic) [Example 164, 1-(2-(7,8-dimethyl-[1,2,4]triazolo[1,5-a]pyridin-6-yl)-3-isopropyl-1H-pyrrolo[3,2-b]pyridin-5-yl)-N-(oxetan-3-yl)pyrrolidin-3-amine]
- IC50 [1, 7]: 33 nM
- IC50 [2, 10]: 2 nM
- IC50 [3, 11]: 19800 nM

Molecule: COc1cc(-c2[nH]c3ccc(C4CCC(N)C4)nc3c2C(C)C)cn2ncnc12 (single isomer, unassigned) [Example 8, 3-(3-isopropyl-2-(8-methoxy-[1,2,4]triazolo[1,5-a]pyridin-6-yl)-1H-pyrrolo[3,2-b]pyridin-5-yl)cyclopentan-1-amine]
- IC50 [1, 7]: 4.7 nM
- IC50 [2, 8]: 21 nM
- IC50 [3, 9]: 8550 nM

Molecule: CNC1CCC(c2ccc3[nH]c(-c4cn5ncnc5c(C)c4C)c(C(C)C)c3n2)CC1 (single isomer, unassigned) [Example 367, 4-(2-(7,8-dimethyl-[1,2,4]triazolo[1,5-a]pyridin-6-yl)-3-isopropyl-1H-pyrrolo[3,2-b]pyridin-5-yl)-N-methylcyclohexanamine]
- IC50 [1, 7]: 1.5 nM
- IC50 [2, 10]: 3.5 nM
- IC50 [3, 11]: 838 nM

Molecule: CNC1CCC(c2ccc3[nH]c(-c4cn5ncnc5c(C)c4C)c(C(C)C)c3n2)CC1 (single isomer, unassigned) [Example 369, 4-(2-(7,8-dimethyl-[1,2,4]triazolo[1,5-a]pyridin-6-yl)-3-isopropyl-1H-pyrrolo[3,2-b]pyridin-5-yl)-N-methylcyclohexanamine]
- IC50 [1, 7]: 0.46 nM
- IC50 [2, 10]: 1.3 nM
- IC50 [3, 11]: 402 nM

Molecule: Cc1c(-c2[nH]c3ccc(C4CCC(N(C)C5COC5)CC4)nc3c2C(C)C)cn2ncnc2c1C (single isomer, unassigned) [Example 424, N-(4-(2-(7,8-dimethyl-[1,2,4]triazolo[1,5-a]pyridin-6-yl)-3-isopropyl-1H-pyrrolo[3,2-b]pyridin-5-yl)cyclohexyl)-N-methyloxetan-3-amine]
- IC50 [1, 4]: 0.89 nM
- IC50 [2, 5]: 0.74 nM
- IC50 [3, 6]: 1530 nM

Molecule: Cc1c(-c2[nH]c3ccc(C4CCC(N(C)C5COC5)CC4)nc3c2C(C)C)cn2ncnc2c1C (single isomer, unassigned) [Example 430, N-(4-(2-(7,8-dimethyl-[1,2,4]triazolo[1,5-a]pyridin-6-yl)-3-isopropyl-1H-pyrrolo[3,2-b]pyridin-5-yl)cyclohexyl)-N-methyloxetan-3-amine]
- IC50 [1, 4]: 13 nM
- IC50 [2, 5]: 14 nM
- IC50 [3, 6]: 15100 nM

Molecule: [2H]C([2H])([2H])N(CC(=O)N1CCN(c2ccc3[nH]c(-c4cn5ncnc5c(C)c4C)c(C(C)C)c3n2)CC1)C([2H])([2H])[2H] (single isomer, unassigned) [Example 831]
- IC50 [1, 12]: 1.5 nM
- IC50 [2, 13]: 2.3 nM
- IC50 [3, 14]: 8550 nM

Molecule: [2H]C1([2H])N(C(=O)CN(C)C)C([2H])([2H])C([2H])([2H])N(c2ccc3[nH]c(-c4cn5ncnc5c(C)c4C)c(C(C)C)c3n2)C1([2H])[2H] (single isomer, unassigned) [Example 858]
- IC50 [1, 12]: 1.1 nM
- IC50 [2, 13]: 1.3 nM
- IC50 [3, 14]: 7130 nM

Molecule: [2H]C([2H])([2H])N(CC(=O)N1C([2H])([2H])C([2H])([2H])N(c2ccc3[nH]c(-c4cn5ncnc5c(C)c4C)c(C(C)C)c3n2)C([2H])([2H])C1([2H])[2H])C([2H])([2H])[2H] (single isomer, unassigned) [Example 859]
- IC50 [1, 12]: 0.97 nM
- IC50 [2, 13]: 1.5 nM
- IC50 [3, 14]: 7310 nM

Molecule: [2H]C([2H])([2H])N(C([2H])([2H])[2H])C([2H])([2H])C(=O)N1CCN(c2ccc3[nH]c(-c4cn5ncnc5c(C)c4C)c(C(C)C)c3n2)CC1 (single isomer, unassigned) [Example 888]
- IC50 [1, 12]: 1.2 nM
- IC50 [2, 13]: 0.59 nM
- IC50 [3, 14]: 12200 nM

Molecule: [2H]C([2H])(C(=O)N1CCN(c2ccc3[nH]c(-c4cn5ncnc5c(C)c4C)c(C(C)C)c3n2)CC1)N(C)C (single isomer, unassigned) [Example 889]
- IC50 [1, 12]: 1.5 nM
- IC50 [2, 13]: 0.76 nM
- IC50 [3, 14]: 9840 nM

Molecule: [2H]C([2H])(C(=O)N1C([2H])([2H])C([2H])([2H])N(c2ccc3[nH]c(-c4cn5ncnc5c(C)c4C)c(C(C)C)c3n2)C([2H])([2H])C1([2H])[2H])N(C)C (single isomer, unassigned) [Example 890]
- IC50 [1, 12]: 1.8 nM
- IC50 [2, 13]: 1.4 nM
- IC50 [3, 14]: 14700 nM

Molecule: Cc1c(-c2[nH]c3ccc(N4CC(N5CCOCC5)C4)nc3c2C(C)C)cn2ncnc2c1C [Example 39, 4-(1-(2-(7,8-dimethyl-[1,2,4]triazolo[1,5-a]pyridin-6-yl)-3-isopropyl-1H-pyrrolo[3,2-b]pyridin-5-yl)azetidin-3-yl)morpholine]
- IC50 [1, 7]: 40 nM
- IC50 [2, 10]: 4.8 nM

Molecule: CC(C)c1c(-c2cn(C)c3ncccc23)[nH]c2ccc(N3CCC(N(CC#N)CC#N)CC3)nc12 [Example 52]
- IC50 [1, 7]: 7.9 nM
- IC50 [2, 10]: 20 nM

Molecule: COc1cc(-c2[nH]c3ccc(N4CCN(C5CCOC5)CC4)nc3c2C(C)C)cn2ncnc12 (stereo not drawn) [Example 103]
- IC50 [1, 7]: 7.3 nM
- IC50 [2, 10]: 2.6 nM

Molecule: CC(C)c1c(-c2cc(CO)c3ncnn3c2)[nH]c2ccc(C3CCC(NCC(=O)N(C)C)CC3)nc12 (stereo not drawn) [Example 216]
- IC50 [2, 10]: 18 nM
- IC50 [3, 11]: 416 nM

Molecule: Cc1cnc(CNC2CCC(c3ccc4[nH]c(-c5cc(CO)c6ncnn6c5)c(C(C)C)c4n3)CC2)cn1 (stereo not drawn) [Example 217]
- IC50 [2, 10]: 8.6 nM
- IC50 [3, 11]: 522 nM

Molecule: CC(C)c1c(-c2cc(CO)c3ncnn3c2)[nH]c2ccc(C3CCC(NCC(=O)N(C)C)CC3)nc12 (stereo not drawn) [Example 222]
- IC50 [2, 10]: 21 nM
- IC50 [3, 11]: 657 nM

Molecule: COc1cc(-c2[nH]c3ccc(C4CCC(NCC5(S(C)(=O)=O)CC5)CC4)nc3c2C(C)C)cn2ncnc12 (stereo not drawn) [Example 223]
- IC50 [2, 10]: 1.4 nM
- IC50 [3, 11]: 485 nM

Molecule: COc1cc(-c2[nH]c3cc(C)c(C4CCC(NCC(C)(C)O)CC4)nc3c2C(C)C)cn2ncnc12 (stereo not drawn) [Example 321]
- IC50 [2, 10]: 3 nM
- IC50 [3, 11]: 1040 nM

Molecule: COCCNC1CCC(c2nc3c(C(C)C)c(-c4cc(OC)c5ncnn5c4)[nH]c3cc2C)CC1 (stereo not drawn) [Example 335]
- IC50 [2, 10]: 4 nM
- IC50 [3, 11]: 1930 nM

Molecule: Cc1c(-c2[nH]c3ccc(C4CCC(N(C)Cc5ncccn5)CC4)nc3c2C(C)C)cn2ncnc2c1C (stereo not drawn) [Example 417]
- IC50 [2, 5]: 7.1 nM
- IC50 [3, 6]: 9500 nM

Molecule: Cc1c(-c2[nH]c3ccc(C4CCC(N(C)Cc5ncccn5)CC4)nc3c2C(C)C)cn2ncnc2c1C (stereo not drawn) [Example 418]
- IC50 [2, 5]: 3.9 nM
- IC50 [3, 6]: 2860 nM

Molecule: Cc1c(-c2[nH]c3ccc(C4CCC(N5CC6(COC6)C5)CC4)nc3c2C(C)C)cn2ncnc2c1C (stereo not drawn) [Example 435]
- IC50 [2, 5]: 5.5 nM
- IC50 [3, 6]: 2180 nM

Molecule: Cc1c(-c2[nH]c3ccc(C4CCC(N5CC(C#N)C5)CC4)nc3c2C(C)C)cn2ncnc2c1C (stereo not drawn) [Example 436]
- IC50 [2, 5]: 27 nM
- IC50 [3, 6]: 8940 nM

Molecule: Cc1c(-c2[nH]c3ccc(C4CCC(N5CC6(COC6)C5)CC4)nc3c2C(C)C)cn2ncnc2c1C (stereo not drawn) [Example 437]
- IC50 [2, 5]: 11 nM
- IC50 [3, 6]: 3750 nM

Molecule: Cc1c(-c2[nH]c3ccc(C4CCC(N5CCN(C)C(=O)C5)CC4)nc3c2C(C)C)cn2ncnc2c1C (stereo not drawn) [Example 443]
- IC50 [1, 4]: 15 nM
- IC50 [2, 5]: 57 nM

Molecule: Cc1c(-c2[nH]c3ccc(C4CCC(N(CCO)CC(=O)N(C)C)CC4)nc3c2C(C)C)cn2ncnc2c1C (stereo not drawn) [Example 468]
- IC50 [1, 4]: 46 nM
- IC50 [2, 5]: 99 nM

Molecule: Cc1cc(-c2[nH]c3ccc(C4CCN(C5COC5)CC4)nc3c2C(C)C)cn(C)c1=O [Example 528]
- IC50 [2, 5]: 23 nM
- IC50 [3, 6]: 5700 nM

Molecule: Cc1c(-c2[nH]c3ccc(N4C[C@H]5C[C@@H](C4)N5C(=O)CN(C)C)nc3c2C(C)C)cn2ncnc2c1C [Example 754]
- IC50 [2, 5]: 1.7 nM
- IC50 [3, 6]: 5430 nM

Molecule: Cc1c(-c2[nH]c3ccc(N4C[C@H]5C[C@@H](C4)N5C(C)C)nc3c2C(C)C)cn2ncnc2c1C [Example 755]
- IC50 [2, 5]: 6.2 nM
- IC50 [3, 6]: 3730 nM

Molecule: Cc1c(-c2[nH]c3ccc(N4CCN(C(=O)CN5CCC(F)C5)CC4)nc3c2C(C)C)cn2ncnc2c1C (stereo not drawn) [Example 917]
- IC50 [2, 15]: 2.9 nM
- IC50 [3, 16]: 43200 nM

Molecule: Cc1c(-c2[nH]c3ccc(N4CCN(C(=O)CN5CC6(CCO6)C5)CC4)nc3c2C(C)C)cn2ncnc2c1C [Example 918]
- IC50 [2, 15]: 6.3 nM
- IC50 [3, 16]: 20600 nM
